In patent US20070225255A1, “Use of Mitochondrially Targeted Antioxidant in the Treatment of Liver Diseases and Epithelial Cancers” (priority 2004, published 2007):

Columns and labels:
hepatoma cell lines = experiment: DDC intoxication of hepatoma cell lines; format: cell-based; details: hepatoma cell lines incubated for up to 72 hours in DMEM and 10% FCS
Method: The hepatoma cell lines incubated for up to 72 hours in culture medium (DMEM and 10% FCS, Gibco) supplemented with DDC (EC50=50 μg/ml of medium) or with up to 100 μM BSO are another suitable in vitro model mimicking observations made in patients suffering from the diseases according to the invention.

[1] = fed in drinking water for 3 to 7 days, 500 μM or 1 mM (MitoVit E 500 μM); cited from earlier work
[2] = system: human cell lines intoxicated with DDC or BSO; experiment: ROS formation in cell lines intoxicated with DDC or BSO; format: cell-based; details: simultaneous treatment at concentrations corresponding to EC50
Description: Another simple set of experiments employing hepatoma cell lines (e.g. HepG2 or Hep3B), the SNU-398 hepatocellular carcinoma-derived cell line (ATCC No. CRL-2233, LGC Promochem, Germany), the HUH-7 human carcinoma-derived cell line (Japanese collection of Research Biosources JCRB 0403) or the Tib-73 mouse embryonic liver cell line (ATCC TIB 73=BNL CL2 derived from BAL/c mouse, MD, USA) allows measurement of ROS production in these cells upon DDC intoxication.
To determine ROS production in for example hepatoma cell lines a standard experimental protocol according to Example 8 is applied. Tested hepatoma cells are grown in 96-well plates in culture medium (DMEM supplemented with 10% FCS, Gibco) to 80% confluency, subsequently washed with HBSS and incubated in the dark with DHE (10-50 μM) for 10 minutes at 37° C. Cells are then washed twice with Hank's balanced salt solution (HBSS, Gibco) to remove excess dye. Fluorescence is monitored in a fluorescence microscope (Olympus, Hamburg, Germany).
Alternatively, the generation of ROS is measured by using the fluoroprobe 5-(and-6)-chloromethyl-2′,7′-dichlorodihydrofluorescein diacetate acetyl ester (CM-H2DCFDA, Molecular Probes, Goettingen, Germany) which is converted to fluorescent dichlorofluorescien (DCF; Djordjevic T. et al., 2004, Antioxidants & Redox Signaling, 6: 713-720). To determine DCF fluorescence in a microplate reader (Tecan, Crailsheim, Germany), cells (e.g. HepG2, Hep3B or SNU-398) are grown in 96-well plates to 80% confluency. […] After several washes with HBSS to remove excess dye, fluorescence is monitored by using 480 nm excitation and 540 nm emission wavelength. DCF fluorescence is standardized to the number of viable cells using the Alamar Blue test according to the manufacturer's instructions (Biosource, Nivelles, Belgium). […] The absorbance is then measured at the wavelength of 580 μm.

[3] = system: DDC- or GF intoxicated mice; experiment: Toxic memory effect upon reintoxication with DDC or GF after recovery; format: in vivo, mouse; details: 10 weeks DDC or GF, 4 weeks recovery, reexposure 24 to 72 hours with simultaneous treatment
Description: Mouse livers respond to DDC- or GF intoxication first with ballooning of hepatocytes and formation of a denser keratin IF network. After around 6 weeks of intoxication, ballooned hepatocytes show a reduced density of the keratin IF and early MBs can be observed as fine granules associated with the keratin IF network. Continuation of intoxication leads to the appearance of large MBs typically located in the perinuclear cytoplasmic region. […] Upon cessation of intoxication, MBs disappear within several weeks. At 4 weeks of recovery from intoxication, there are groups of hepatocytes devoid of cytoplasmic keratin filaments but still containing small remnants of MBs at the cell periphery in association with desmosomes. If such mice are reexposed to DDC or GF numerous MBs reappear within 24 to 72 hours (Stumptner C. et al., 2001, J. Hepatol., 34: 665-675). This enhanced formation of MBs upon reintoxication was interpreted—in analogy to allergic reactions—as a toxic memory effect.
In another set of experiments, 10 week-intoxication of mice with DDC or GF is followed by 4 weeks of recovery.

[4] = system: human epithelial cell cancer xenografts; experiment: Nude mice tumor xenografts; format: in vivo, mouse
Method: Tumor cell lines or primary tumors that are xenografted subcutaneously according to standard methods (Li K. et al., 2003, Cancer Res., 63(13): 3593-3597) include colon adenocarcinomas, invasive ductal carcinomas of the breast, small and non-small cell lung carcinoma, prostate tumors, pancreatic tumors and stomach tumors.
Tumor-derived cell lines (grown in DMEM/10% FBS) are harvested in log-phase growth, washed twice with PBS, resuspended in 1 ml PBS (2.5×10^7 cells/ml), and injected subcutaneously into the right flank of a nude mouse (Hsd: athymic nu/nu, Harlan Winkelmann; aged between 5 and 6 weeks) at 5×10^6 cells/mouse (0.2 ml). Tumor growth is monitored every other day for the indicated periods (depending on the cell type). Tumor size is determined by the product of two perpendicular diameters and the height above the skin surface.

[5] = according to Jauslin M. L. et al., 2003, FASEB J.; cited from earlier work
[6] = fed to mice on a long term basis; cited from earlier work
[7] = system: mitochondria within isolated cells; details: in vitro; cited from earlier work
[8] = intraperitoneal or i.v. (tail vein) injections, mice; cited from earlier work
[9] = system: patients having liver cirrhosis and a history of hepatitis C virus (HCV) infection; details: patients with liver cirrhosis and HCV history (VitE group); cited from earlier work
[10] = system: choline deficient diet fed rats; details: cited from earlier work

## CCOC(=O)C1=C(C)NC(C)=C(C(=O)OCC)C1C [DDC]
Hepatoma cell lines
  EC50: 50 μg/ml of medium

## COc1c(O)c(C)c(CCCCCCCCCC[P+](c2ccccc2)(c2ccccc2)c2ccccc2)c(O)c1OC.CS(=O)(=O)[O-] [MitoS]
[1]
  gross signs of toxicity: without any gross signs of toxicity
[2]
  ROS formation: significant reduction in ROS formation
[3]
  toxic memory effect (reappearance of MBs): reduced or abolished
[4]
  growth of tumors: reduced growth of tumors
  necrosis of the tumors: increased necrosis of the tumors
  vascularization of the tumor xenografts: decreased vascularization

## Cc1c(C)c2c(c(C)c1O)CCC(C)(CC[P+](c1ccccc1)(c1ccccc1)c1ccccc1)O2 (stereo not drawn) [MitoVit E, [2-(3,4-dihydro-6-hydroxy-2,5,7,8-tetramethyl-2H-1-benzopyran-2-yl)ethyl]-triphenylphosphonium bromide]
[5]
  EC50: 416 nM
[1]
  gross signs of toxicity: without any gross signs of toxicity
[2]
  ROS formation: significant reduction in ROS formation
[3]
  toxic memory effect (reappearance of MBs): reduced or abolished
[6]
  concentrations within the brain, heart, liver, and muscle: potentially therapeutically effective concentrations
  safety of feeding: fed safely
[7]
  accumulation by mitochondria: rapidly and selectively accumulated by mitochondria
[8]
  maximum tolerated dose: 6 mg/kg/day

## C[P+](c1ccccc1)(c1ccccc1)c1ccccc1 [TPMP, reference compound]
[6]
  safety of feeding: fed safely

## Cc1c(C)c2c(c(C)c1O)CC[C@@](C)(CCC[C@H](C)CCC[C@H](C)CCCC(C)C)O2 [alpha-tocopherol]
[9]
  liver function, hepatocarcinogenesis, cumulative survival: neither improvement of liver function, suppression of hepatocarcinogenesis, nor improvement of cumulative survival

## vitamin E
[10]
  development of fatty liver and oxidative stress: neither prevented the development of fatty liver nor reduced the oxidative stress
